ChEMBL document CHEMBL5143724, “Small Molecules Promote Selective Denaturation and Degradation of Tubulin Heterodimers through a Low-Barrier Hydrogen Bond” (J Med Chem, 2022)
Activity calls are given as the source filed them.

Tests used:
HeLa [1] = assay: Antiproliferative activity against human HeLa cells assessed as cell viability at 0.001 to 100 uM incubated for 48 hrs by MTT assay; format: functional, cell-based; details: dose 0.001-100 µM
[2] = target: T1, Tubulin beta (Homo sapiens) (UniProt P68371+Q9H4B7+Q13509+P04350+Q3ZCM7+P07437+Q13885+Q9BVA1+Q9BUF5+A6NNZ2); assay: Induction of Beta tubulin degradation in human HeLa cells at 0.001 to 100 uM incubated for 16 hrs by immunoblotting analysis; format: cell-based; details: dose 0.001-100 µM
NCI-H460 [3] = assay: Downregulation of Alpha tubulin level in human NCI-H460 cells incubated for 24 hrs by immunoblot analysis; format: functional, cell-based; details: dose 0.1-10 µM, DDE = dose-dependent effect
SU-DHL-6 [4] = assay: Downregulation of Beta tubulin level in human SU-DHL-6 cells incubated for 24 hrs by immunoblot analysis; format: functional, cell-based; details: dose 0.1-10 µM, DDE = dose-dependent effect
Tubulin beta = assay: (§1) Induction of Beta tubulin degradation in human HeLa cells incubated for 24 hrs by immunoblot analysis; format: cell-based
HCT-116 [5] = assay: In vivo antitumor activity against human HCT-116 cells xenografted in mouse model assessed as reduction in beta tubulin level at 80 mg/kg administered once through tail vein injection measured after 24 hrs by immunoblot analysis; format: functional, organism-based
[6] = test system: Tubulin beta (Homo sapiens), P68371+Q9H4B7+Q13509+P04350+Q3ZCM7+P07437+Q13885+Q9BVA1+Q9BUF5+A6NNZ2 [UNDEFINED MUTATION]; assay: Induction of FLAG tagged Beta tubulin (unknown origin) Y200F mutant transfected in human HeLa cells incubated for 16 hrs by immunoblotting analysis; format: cell-based
SU-DHL-6 [7] = assay: Downregulation of Alpha tubulin level in human SU-DHL-6 cells incubated for 24 hrs by immunoblot analysis; format: functional, cell-based; details: dose 0.1-10 µM, DDE = dose-dependent effect
[8] = target: T1, Tubulin beta (Homo sapiens); assay: Induction of Beta tubulin degradation in human HeLa cells at 1 uM incubated for 16 hrs in presence of maytansine by immunoblot analysis; format: cell-based
Tubulin (Homo sapiens) [9] = target: T2, Tubulin (Homo sapiens) (UniProt P68371+Q9H4B7+P0DPH7+P68366+Q13509+Q71U36+P04350+Q3ZCM7+P07437+P68363+Q9BQE3+Q6PEY2+Q13885+Q9BVA1+Q9BUF5); assay: Induction of tubulin […] (unknown origin) assessed as increase in turbidity at 5 to 20 uM measured every one min for 30 mins by absorbance based analysis; format: protein-complex assay; details: dose 5-20 µM
Tubulin (Sus scrofa) [10] = target: T3, Tubulin (Sus scrofa) (UniProt P02554+P02550); assay: Induction of porcine tubulin aggregation assessed as formation of spherical sized tubulin aggregates at 20 uM incubated for 4 hrs by TEM analysis; format: protein assay
HCT-116 [11] = assay: Downregulation of Alpha tubulin level in human HCT-116 cells at 1 uM by immunoblot analysis; format: functional, cell-based; details: time 1-16 hrs, TDE = time-dependent effect
[12] = target: T1, Tubulin beta (Homo sapiens); assay: Induction of Beta tubulin degradation in human HeLa cells at 1 uM incubated for 16 hrs in presence of pironetin by immunoblot analysis; format: cell-based
Tubulin (Sus scrofa) [13] = target: T3, Tubulin (Sus scrofa); assay: Inhibition of porcine tubulin polymerization measured every 1 min for 30 mins in presence of GTP by microplate reader analysis; format: protein assay; details: dose 5-20 µM, DDE = dose-dependent effect
NCI-H460 [14] = assay: In vivo antitumor activity against human NCI-H460 cells xenografted in Balb/c nude athymic mouse assessed as inhibition of tumor growth administered ip once a week and measured every 2 days for 24 days; format: functional, organism-based; details: dose 10-40 mg/kg, time 2.0 day, DDE = dose-dependent effect
Tubulin (Homo sapiens) [15] = target: T2, Tubulin (Homo sapiens); assay: Destabilization of tubulin (unknown origin) assessed as melting temperature at 30 uM incubated for 20 mins by differential scanning fluorimetry; format: protein-complex assay
HCT-116 [16] = assay: Downregulation of Beta tubulin level in human HCT-116 cells at 1 uM by immunoblot analysis; format: functional, cell-based; details: time 1-16 hrs, TDE = time-dependent effect
[17] = target: T4, Tubulin alpha (Homo sapiens) (UniProt P0DPH7+P68366+Q71U36+P68363+Q9BQE3+Q6PEY2+A6NHL2+Q9NY65); assay: Induction of Alpha tubulin degradation in human HeLa cells at 1 uM incubated for 16 hrs in presence of maytansine by immunoblot analysis; format: cell-based
HeLa [18] = assay: Downregulation of Alpha tubulin level in human HeLa cells at 1 uM measured for 6 hrs by tandem mass tag quantitative proteomic analysis; format: functional, cell-based
HCT-116 [19] = assay: In vivo antitumor activity against human HCT-116 cells xenografted in Balb/c nude athymic mouse assessed as inhibition of tumor growth administered ip once a week and measured every 2 days for 24 days; format: functional, organism-based; details: dose 10-40 mg/kg, time 2.0 day, DDE = dose-dependent effect
HeLa [20] = assay: Downregulation of Alpha tubulin level in human HeLa cells incubated for 24 hrs by immunoblot analysis; format: functional, cell-based; details: dose 0.1-10 µM, DDE = dose-dependent effect
HCT-116 [21] = assay: Antiproliferative activity against human HCT-116 cells assessed as cell viability at 0.001 to 100 uM incubated for 72 hrs by MTT assay; format: functional, cell-based; details: dose 0.001-100 µM
HCT-116 [22] = assay: In vivo antitumor activity against human HCT-116 cells xenografted in mouse model assessed as reduction in alpha tubulin level at 80 mg/kg administered once through tail vein injection measured after 24 hrs by immunoblot analysis; format: functional, organism-based
NCI-H460 [23] = assay: Downregulation of Beta tubulin level in human NCI-H460 cells incubated for 24 hrs by immunoblot analysis; format: functional, cell-based; details: dose 0.1-10 µM, DDE = dose-dependent effect
HeLa [24] = assay: Induction of FLAG tagged Beta tubulin E198Q mutant (unknown origin) transfected in HeLa cells incubated for 16 hrs by immunoblotting analysis; format: cell-based; details: Homo sapiens
Tubulin (Homo sapiens) [25] = target: T2, Tubulin (Homo sapiens); assay: Induction of tubulin degradation in human HeLa cells assessed as ubiquitin of total protein at 0.01 to 100 uM incubated for 16 hrs by immunoblot analysis; format: cell-based; details: dose 0.01-100 µM
[26] = target: T1, Tubulin beta (Homo sapiens); assay: Induction of Beta tubulin degradation in human HeLa cells at 1 uM incubated for 16 hrs in presence of vinblastine by immunoblot analysis; format: cell-based
HeLa [27] = assay: Downregulation of Beta tubulin level in human HeLa cells incubated for 24 hrs by immunoblot analysis; format: functional, cell-based; details: dose 0.1-10 µM, DDE = dose-dependent effect
[28] = test system: Tubulin beta (Homo sapiens), P68371+Q9H4B7+Q13509+P04350+Q3ZCM7+P07437+Q13885+Q9BVA1+Q9BUF5+A6NNZ2 [UNDEFINED MUTATION]; assay: Induction of FLAG tagged Beta tubulin E198D mutant (unknown origin) transfected in HeLa cells incubated for 16 hrs by immunoblotting analysis; format: cell-based
HeLa [29] = assay: Antiproliferative activity against human Hela cells assessed as cell viability at 0.001 to 100 microM incubated for 72 hrs by MTT assay; format: functional, cell-based; details: dose 0.001-100 µM
[30] = target: T4, Tubulin alpha (Homo sapiens); assay: Induction of Alpha tubulin degradation in human HeLa cells at 1 uM incubated for 16 hrs in presence of vinblastine by immunoblot analysis; format: cell-based
[31] = target: T4, Tubulin alpha (Homo sapiens); assay: Induction of Alpha tubulin degradation in human HeLa cells assessed as increase in ubiquitination level of Alpha tubulin at 1 to 10 uM incubated for 6 hrs by immunoblot analysis; format: cell-based; details: dose 1-10 µM
[32] = target: T1, Tubulin beta (Homo sapiens); assay: Induction of Beta tubulin degradation in human HeLa cells assessed as increase in ubiquitination level of Beta tubulin at 1 to 10 uM incubated for 6 hrs by immunoblot analysis; format: cell-based; details: dose 1-10 µM
HeLa [33] = assay: Reduction in Beta tubulin mRNA expression in human HeLa cells at 1 uM measured upto 16 hrs by qPCR analysis; format: functional, cell-based
HeLa [34] = assay: Reduction in Alpha tubulin mRNA expression in human HeLa cells at 1 uM measured upto 16 hrs by qPCR analysis; format: functional, cell-based
HeLa [35] = assay: Induction of apoptosis in human HeLa cells assessed as accumulation of cells at G2/M phase 0.1 to 10 uM incubated for 16 hrs by propidium iodide staining based flow cytometry; format: functional, cell-based; details: dose 0.1-10 µM
Tubulin alpha = assay: (§2) Induction of Alpha tubulin degradation in human HeLa cells incubated for 24 hrs by immunoblot analysis; format: cell-based
HCT-116 [36] = assay: Induction of apoptosis in human HCT-116 cells assessed as accumulation of cells at G2/M phase 0.1 to 10 uM incubated for 16 hrs by propidium iodide staining based flow cytometry; format: functional, cell-based; details: dose 0.1-10 µM
HCT-116 [37] = assay: Downregulation of Beta tubulin level in human HCT-116 cells incubated for 24 hrs by immunoblot analysis; format: functional, cell-based; details: dose 0.1-10 µM, DDE = dose-dependent effect
HeLa [38] = assay: Downregulation of Beta tubulin level in human HeLa cells at 1 uM measured for 6 hrs by tandem mass tag quantitative proteomic analysis; format: functional, cell-based
HeLa [39] = assay: Downregulation of Beta tubulin level in human HeLa cells at 1 uM by immunoblot analysis; format: functional, cell-based; details: time 1-16 hrs, TDE = time-dependent effect
HeLa [40] = assay: Downregulation of Alpha tubulin level in human HeLa cells at 1 uM by immunoblot analysis; format: functional, cell-based; details: time 1-16 hrs, TDE = time-dependent effect
[41] = target: T4, Tubulin alpha (Homo sapiens); assay: Induction of Alpha tubulin degradation in human HeLa cells at 1 uM incubated for 16 hrs in presence of pironetin by immunoblot analysis; format: cell-based
HeLa [42] = assay: Induction of FLAG tagged Beta tubulin E198G mutant (unknown origin) transfected in HeLa cells incubated for 16 hrs by immunoblotting analysis; format: cell-based; details: Homo sapiens
HCT-116 [43] = assay: Downregulation of Alpha tubulin level in human HCT-116 cells incubated for 24 hrs by immunoblot analysis; format: functional, cell-based; details: dose 0.1-10 µM, DDE = dose-dependent effect
[44] = target: T1, Tubulin beta (Homo sapiens); assay: Induction of wild type flag tagged Beta tubulin (unknown origin) transfected in HeLa cells incubated for 16 hrs by immunoblotting analysis; format: cell-based
NCI-H460 [45] = assay: Antiproliferative activity against human NCI-H460 cells assessed as cell viability at 0.001 to 100 uM incubated for 72 hrs by MTT assay; format: functional, cell-based; details: dose 0.001-100 µM
[46] = target: T1, Tubulin beta (Homo sapiens); assay: Binding affinity to Beta-tubulin colchicine binding site in human HeLa cells assessed as inhibition of tubulin-EBI adduct formation at 2 to 25 uM pretreated fo 1 hr with compound followed by EBI addition measured after 2 hrs by Western blotting analysis; format: cell-based; details: dose 2-25 µM, time 3.0 hrs
Tubulin (Homo sapiens) [47] = target: T2, Tubulin (Homo sapiens); assay: Induction of tubulin aggregation in human HeLa cells by size-exclusion chromatography; format: cell-based
[48] = target: T1, Tubulin beta (Homo sapiens); assay: as §1; format: cell-based; details: DDE = dose-dependent effect
[49] = target: T1, Tubulin beta (Homo sapiens); assay: Induction of Beta tubulin degradation in human HCT-116 cells incubated for 24 hrs by immunoblot analysis; format: cell-based; details: dose 0.3-30 µM, DDE = dose-dependent effect
[50] = target: T4, Tubulin alpha (Homo sapiens); assay: Induction of Alpha tubulin degradation in human HCT-116 cells incubated for 24 hrs by immunoblot analysis; format: cell-based; details: dose 0.3-30 µM, DDE = dose-dependent effect
[51] = target: T4, Tubulin alpha (Homo sapiens); assay: as §2; format: cell-based; details: DDE = dose-dependent effect
Tubulin (Homo sapiens) [52] = target: T2, Tubulin (Homo sapiens); assay: Induction of tubulin denaturation (unknown origin) pre incubated for 2 to 8 hrs with compound followed by GH addition measured after 30 mins by spectrophotometer based microplate reader method; format: protein-complex assay; details: time 2.5-8.5 hrs

T3 sequence (P02550 whole entry, looked up): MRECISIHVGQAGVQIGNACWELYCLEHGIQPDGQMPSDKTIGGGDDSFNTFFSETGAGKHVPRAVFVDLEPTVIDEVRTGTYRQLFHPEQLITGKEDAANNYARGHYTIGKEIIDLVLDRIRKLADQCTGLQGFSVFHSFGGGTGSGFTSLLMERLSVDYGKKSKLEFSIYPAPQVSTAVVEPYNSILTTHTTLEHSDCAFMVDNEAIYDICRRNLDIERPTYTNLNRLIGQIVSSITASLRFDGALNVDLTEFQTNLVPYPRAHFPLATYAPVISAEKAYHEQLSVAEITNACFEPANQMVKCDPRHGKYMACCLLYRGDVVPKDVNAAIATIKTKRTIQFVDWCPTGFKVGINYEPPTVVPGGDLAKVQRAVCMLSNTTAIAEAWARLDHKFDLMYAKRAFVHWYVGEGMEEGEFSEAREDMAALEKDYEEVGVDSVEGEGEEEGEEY
T3 sequence (P02554 whole entry, looked up): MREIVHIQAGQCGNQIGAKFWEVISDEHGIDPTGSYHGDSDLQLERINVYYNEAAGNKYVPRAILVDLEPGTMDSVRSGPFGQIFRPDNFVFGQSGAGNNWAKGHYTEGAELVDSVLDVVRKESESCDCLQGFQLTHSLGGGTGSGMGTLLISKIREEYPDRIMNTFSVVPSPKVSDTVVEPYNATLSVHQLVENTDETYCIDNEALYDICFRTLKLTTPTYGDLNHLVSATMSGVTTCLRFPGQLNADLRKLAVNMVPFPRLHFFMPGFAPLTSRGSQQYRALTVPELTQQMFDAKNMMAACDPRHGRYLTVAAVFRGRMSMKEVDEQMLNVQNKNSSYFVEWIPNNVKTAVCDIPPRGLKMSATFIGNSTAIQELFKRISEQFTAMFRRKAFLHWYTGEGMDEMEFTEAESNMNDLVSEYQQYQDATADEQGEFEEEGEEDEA

c1ccc(Oc2cccc(CCc3cc4c(cn3)[nH]c3ccccc34)c2)cc1
active: Activity (HeLa [1]) | Activity [2]

c1ccc(Oc2cccc(CNc3cc4c(cn3)[nH]c3ccccc34)c2)cc1
182 nM: DC50 (Tubulin alpha)
524 nM: DC50 (Tubulin beta)
active: Activity (NCI-H460 [3]) Dde | Activity (SU-DHL-6 [4]) Dde | Activity (HCT-116 [5]) | Activity [6] | Activity (SU-DHL-6 [7]) Dde | Activity [8] | Activity (Tubulin (Homo sapiens) [9]) | Activity (Tubulin (Sus scrofa) [10]) | Activity (HCT-116 [11]) Tde | Activity [12] | inhibition (Tubulin (Sus scrofa) [13]) Dde | Activity (NCI-H460 [14]) Dde | Activity (HCT-116 [16]) Tde | Activity [17] | Activity (HeLa [18]) | Activity (HCT-116 [19]) Dde | Activity (HeLa [20]) Dde | Activity (HCT-116 [21]) | Activity (HCT-116 [22]) | Activity (NCI-H460 [23]) Dde | Activity (HeLa [24]) | Activity (Tubulin (Homo sapiens) [25]) | Activity [26] | Activity (HeLa [27]) Dde | Activity [28] | Activity (HeLa [29]) | Activity [30] | Activity [31] | Activity [32] | Activity (HeLa [33]) | Activity (HeLa [34]) | Activity (HeLa [35]) | Activity (HCT-116 [36]) | Activity (HCT-116 [37]) Dde | Activity (HeLa [38]) | Activity (HeLa [39]) Tde | Activity (HeLa [40]) Tde | Activity [41] | Activity (HeLa [42]) | Activity (HCT-116 [43]) Dde | Activity [44] | Activity (NCI-H460 [45]) | Activity [46] | Activity (Tubulin (Homo sapiens) [47])
51.5 °C: Tm (Tubulin (Homo sapiens) [15])

COc1cccc(-c2cc(NCc3ccc4c(c3)OCO4)nc(N)n2)c1
active: Activity [48] Dde | Activity (Tubulin (Sus scrofa) [10]) | Activity [49] Dde | Activity [12] | Activity [17] | Activity [50] Dde | Activity (HeLa [33]) | Activity (HeLa [34]) | Activity [51] Dde | Activity (Tubulin (Homo sapiens) [52])

CCCCNc1cc2c(cn1)[nH]c1ccccc12
active: Activity (HeLa [1]) | Activity [2]
